Each compound was assayed on MDCK cells (assay: HGF-induced epithelial-mesenchymal transition / migration of MDCK cells on transwell filters (crystal violet densitometry)). Conditions: Canis lupus familiaris, MDCK, 24 h, Table 3, 10 μM compound, then HGF, percentage like untreated controls (unstimulated cells = maximal effect, HGF only = nil).
Assay type: cell-based
Procedure: MDCK cells were seeded at confluency into the wells of a transwell filter in DMEM with 10% fetal bovine serum. Cells were cultured for 24 hours. Test compounds, dissolved in DMSO, were added to each test well to a 10 μM final concentration, and then hepatocyte growth factor (HGF) was then added. The MDCK cells were cultured for 24 hours. Concurrently, controls treated with and without HGF and with no test compounds were also prepared.
After post-HGF addition culturing, transwell filters were prepared by repeated washing using ice cold PBS. The cells were then fixed with paraformaldehyde (3.7%) on ice for 15 minutes to the filters. After fixation, the transwell filters were washed repeatedly with PBS followed by staining with crystal violet for 15 minutes. The transwell filters were washed again with distilled water.
The upper surface of the transwell filters were swabbed using a cotton-tipped probe. The filters were photographed using a gel documentation system. Densitometry measurements were made on the test samples and compared with control samples.

Structure (SMILES) | inhibition at 10 µM [%]
COc1cc(CNc2ccc(C)c(Cl)c2)cc(Br)c1OC [Compound A-19] | > 5
Cc1ccc(/C=N/c2ccccc2C(N)=O)o1 [Compound A-13] | 11.2
COc1cccc(/C=N/c2ccccc2C(N)=O)c1O [Compound A-4] | 20.9
NC(=O)c1ccccc1/N=C/c1ccc(Br)s1 [Compound A-12] | 17.5
NC(=O)c1ccccc1/N=C/c1cccc2ccccc12 [Compound A-3] | 87.8
NC(=O)c1ccccc1/N=C/c1cccc(Cl)c1 [Compound A-9] | 96.4
NC(=O)c1ccccc1/N=C/c1ccccc1[N+](=O)[O-] [Compound A-7] | 11.7

Same assay, conditions: Canis lupus familiaris, MDCK, 24 h, Table 4, 10 μM compound, then HGF, percentage like untreated controls (unstimulated cells = maximal effect, HGF only = nil)

Structure (SMILES) | inhibition at 10 µM [%]
CCOc1ccc(C(=O)Nc2ccc(I)cn2)cc1[N+](=O)[O-] [Compound B-10] | 69.9
O=C(Nc1ncc(Br)cc1Br)c1cccc([N+](=O)[O-])c1 [Compound B-12] | 42.4
CCOc1ccc(C(=O)Nc2cccc(C)n2)cc1[N+](=O)[O-] [Compound B-9] | 34.6
Cc1nc(NC(=O)COc2ccc([N+](=O)[O-])cc2)ccc1I [Compound B-2] | 96.9
Cc1nc(NC(=O)c2cc([N+](=O)[O-])ccc2N2CCOCC2)ccc1I [Compound B-4] | 31.7

Same assay, conditions: Canis lupus familiaris, MDCK, 24 h, Table 5, 10 μM compound, then HGF, percentage like untreated controls (unstimulated cells = maximal effect, HGF only = nil)

Structure (SMILES) | inhibition at 10 µM [%]
COc1ccc(C(=O)c2cc([N+](=O)[O-])ccc2N2CCOCC2)cc1 [Compound B-34] | 93.4
COc1cc(C(=O)Nc2ccc(N3CCN(C)CC3)cc2)cc(OC)c1OC [Compound B-28] | 13.7
Cc1cccc(NS(=O)(=O)c2cccc([N+](=O)[O-])c2)c1 [Compound B-36] | 79.2
COc1cccc(C(=O)Nc2cccc(C(=O)c3ccccc3)c2)c1 [Compound B-40] | 93.1
O=C(Nc1cccc(Cl)c1)c1ccc(-c2ccccc2)cc1 [Compound B-19] | 93.2
COc1cc(C(=O)Nc2ccc(N(C)C)cc2)cc(OC)c1OC [Compound B-22] | > 5
O=[N+]([O-])c1cccc(S(=O)(=O)Nc2ccc(I)cc2)c1 [Compound B-39] | 89.3
COc1cc(C(=O)Nc2ccc(N3CCCC3=O)cc2)cc(OC)c1OC [Compound B-24] | 93.2
Cc1cc(C)cc(NS(=O)(=O)c2cccc([N+](=O)[O-])c2)c1 [Compound B-37] | 79.9
O=C(Nc1cccc(C(=O)N2CCOCC2)c1)c1ccc(-c2ccccc2)cc1 [Compound B-21] | 27.2
O=C(Nc1cccc(C(=O)c2ccccc2)c1)c1ccc(-c2ccccc2)cc1 [Compound B-18] | 93.8
NC(=O)c1cccc(NC(=O)c2ccc(-c3ccccc3)cc2)c1 [Compound B-20] | 20.6

Same assay, conditions: Canis lupus familiaris, MDCK, 24 h, Table 6, 10 μM compound, then HGF, percentage like untreated controls (unstimulated cells = maximal effect, HGF only = nil)

Structure (SMILES) | inhibition at 10 µM [%]
CCCc1c(C(=O)OCC)[nH]c2c1C(=O)CC(c1cccs1)C2 (stereo not drawn) [Compound C-9] | 15.3
Cc1c(C(=O)OCc2ccccc2)[nH]c2c1C(=O)CC(c1ccco1)C2 (stereo not drawn) [Compound C-15] | < 5
Cc1c(C(=O)OC2CCCCC2)[nH]c2c1C(=O)CC(c1cccs1)C2 (stereo not drawn) [Compound C-11] | < 5
COC(=O)c1[nH]c2c(c1C)C(=O)CC(c1cccs1)C2 (stereo not drawn) [Compound C-3] | 84.1
Cc1c(C(=O)OCC2CCCO2)[nH]c2c1C(=O)CC(c1cccs1)C2 (stereo not drawn) [Compound C-17] | 75.7
Cc1c(C(=O)OCc2ccccc2)[nH]c2c1C(=O)CC(c1cccs1)C2 (stereo not drawn) [Compound C-5] | 41.6
Cc1c(C(=O)OC2CCCC2)[nH]c2c1C(=O)CC(c1ccco1)C2 (stereo not drawn) [Compound C-14] | < 5
CCOC(=O)c1[nH]c2c(c1C)C(=O)CC(c1cccs1)C2 (stereo not drawn) [Compound C-2] | 49.7

Same assay, conditions: Table 1; 10 μM compound, then HGF, 24 hours; percentage like untreated controls (unstimulated cells = maximal effect, HGF only = nil)

Structure (SMILES) | Assay Value [%]
CCOc1ccc(Br)cc1C1CC(=O)Nc2cc3c(cc21)OCCO3 (stereo not drawn) [Compound 9] | 64.9
COc1cc2c(c(OC)c1)C(c1cc(OC)ccc1OC)CC(=O)N2 (stereo not drawn) [Compound 22] | 8.8
COc1ccc(Cl)cc1C1CC(=O)Nc2cc3c(cc21)OCCO3 (stereo not drawn) [Compound 10] | 62.9
O=C1CC(c2ccc(F)c(Br)c2)c2cc3c(cc2N1)OCCO3 (stereo not drawn) [Compound 21] | 11.2
O=C1CC(c2cc(Br)ccc2F)c2cc3c(cc2N1)OCCO3 (stereo not drawn) [Compound 11] | 27.9
O=C1CC(c2cc3c(cc2Cl)OCO3)c2cc3c(cc2N1)OCCO3 (stereo not drawn) [Compound 20] | 5.9
O=C1CC(c2cc(F)ccc2F)c2cc3c(cc2N1)CCC3 (stereo not drawn) [Compound 2] | 90.3
COc1ccc(OC)c(C2CC(=O)Nc3cc(OC)c(OC)c(OC)c32)c1 (stereo not drawn) [Compound 30] | 52.3
COc1cc2c(cc1OC)C(c1cccc(Cl)c1Cl)CC(=O)N2 (stereo not drawn) [Compound 13] | >5
O=C1CC(c2cc3c(cc2Br)OCO3)c2cc3c(cc2N1)CCC3 (stereo not drawn) [Compound 27] | 87.2
COc1cc(C2CC(=O)Nc3cc4c(cc32)OCCO4)cc(OC)c1O (stereo not drawn) [Compound 32] | 88.2

Same assay, conditions: Table 2; 10 μM compound, then HGF, 24 hours; percentage like untreated controls (unstimulated cells = maximal effect, HGF only = nil)

Structure (SMILES) | Assay Value [%]
COc1cc2c(cc1OC)C(c1cccc(Br)c1)CC(=O)N2 (stereo not drawn) [Compound 59] | <5
CCOc1c(Br)cc(C2CC(=O)Nc3cc(OC)c(OC)cc32)cc1OC (stereo not drawn) [Compound 39] | <5
Cc1ccccc1C1CC(=O)Nc2cc3c(cc21)OCCO3 (stereo not drawn) [Compound 45] | <5
O=C1CC(c2ccc(O)cc2)c2cc3c(cc2N1)OCO3 (stereo not drawn) [Compound 76] | <5
CCOc1ccc(C2CC(=O)Nc3cc4c(cc32)OCCO4)cc1OC (stereo not drawn) [Compound 63] | <5
CSc1ccc(C2CC(=O)Nc3cc4c(cc32)OCCO4)cc1 (stereo not drawn) [Compound 68] | <5
O=C1CC(c2cccc(F)c2F)c2cc3c(cc2N1)OCO3 (stereo not drawn) [Compound 75] | <5
O=C1CC(c2ccc([N+](=O)[O-])cc2)c2cc3c(cc2N1)CCC3 (stereo not drawn) [Compound 98] | <5
O=C1CC(c2ccccc2OCc2ccccc2)c2cc3c(cc2N1)OCCO3 (stereo not drawn) [Compound 56] | <5
COc1cc2c(cc1OC)C(c1ccc(Cl)cc1)CC(=O)N2 (stereo not drawn) [Compound 55] | <5
COc1cc2c(cc1OC)C(c1cc(C)ccc1C)CC(=O)N2 (stereo not drawn) [Compound 57] | <5
O=C1CC(c2ccccc2[N+](=O)[O-])c2cc3c(cc2N1)OCCO3 (stereo not drawn) [Compound 67] | <5
O=C1CC(c2cccc(Cl)c2)c2cc3c(cc2N1)CCC3 (stereo not drawn) [Compound 96] | <5
O=C1CC(c2ccc(Cl)cc2Cl)c2cc3c(cc2N1)CCC3 (stereo not drawn) [Compound 97] | <5
COc1c(O)cccc1C1CC(=O)Nc2cc3c(cc21)OCO3 (stereo not drawn) [Compound 90] | <5
COc1cc2c(cc1OC)C(c1cc(OC)c(OC)cc1OC)CC(=O)N2 (stereo not drawn) [Compound 65] | <5

Structure (SMILES) | Assay Value [%]
O=C1CC(c2ccc(F)cc2F)c2cc3c(cc2N1)OCO3 (stereo not drawn) [Compound 82] | <5
COc1cc2c(cc1OC)C(c1ccccc1C)CC(=O)N2 (stereo not drawn) [Compound 40] | <5
O=C1CC(c2cccc(Br)c2)c2cc3c(cc2N1)CCC3 (stereo not drawn) [Compound 95] | <5
CCOc1ccc(C2CC(=O)Nc3cc4c(cc32)OCO4)cc1 (stereo not drawn) [Compound 81] | <5
O=C1CC(c2cccc(F)c2)c2cc3c(cc2N1)OCCO3 (stereo not drawn) [Compound 44] | <5
O=C1CC(c2ccccc2Br)c2cc3c(cc2N1)OCCO3 (stereo not drawn) [Compound 36] | <5
O=C1CC(c2ccccc2C(F)(F)F)c2cc3c(cc2N1)OCO3 (stereo not drawn) [Compound 87] | <5
O=C1CC(c2ccccc2)c2cc3c(cc2N1)OCO3 (stereo not drawn) [Compound 86] | <5
COc1ccccc1C1CC(=O)Nc2cc(C)c(C)cc21 (stereo not drawn) [Compound 34] | <5
CC(C)c1ccc(C2CC(=O)Nc3cc4c(cc32)OCCO4)cc1 (stereo not drawn) [Compound 79] | <5
COc1cc(Br)c(C2CC(=O)Nc3cc(OC)c(OC)cc32)cc1OC (stereo not drawn) [Compound 48] | <5
COc1ccc(C2CC(=O)Nc3cc4c(cc32)OCO4)cc1Cl (stereo not drawn) [Compound 84] | <5
O=C1CC(c2cc(F)cc(F)c2)c2cc3c(cc2N1)OCO3 (stereo not drawn) [Compound 77] | <5
COc1cc2c(cc1OC)C(c1cc(F)ccc1F)CC(=O)N2 (stereo not drawn) [Compound 72] | <5
O=C1CC(c2ccc(F)cc2)c2cc3c(cc2N1)OCCO3 (stereo not drawn) [Compound 62] | <5
CC(C)Oc1ccc(C2CC(=O)Nc3cc4c(cc32)OCCO4)cc1 (stereo not drawn) [Compound 73] | <5

Same assay, conditions: Table 3; 10 μM compound, then HGF, 24 hours; percentage like untreated controls (unstimulated cells = maximal effect, HGF only = nil)

Structure (SMILES) | Assay Value [%]
COc1cc(CNc2ccc(C)c(Cl)c2)cc(Cl)c1OC [Compound A-26] | <5

Same assay, conditions: Table 5; 10 μM compound, then HGF, 24 hours; percentage like untreated controls (unstimulated cells = maximal effect, HGF only = nil)

Structure (SMILES) | Assay Value [%]
Cc1cc(NC(=O)c2cccc([N+](=O)[O-])c2)ccc1O [Compound B-14] | 34.6

Same assay, conditions: Table 6; 10 μM compound, then HGF, 24 hours; percentage like untreated controls (unstimulated cells = maximal effect, HGF only = nil)

Structure (SMILES) | Assay Value [%]
Cc1c(C(=O)OC2CCCC2C)[nH]c2c1C(=O)CC(c1cccs1)C2 (stereo not drawn) [Compound C-12] | <5
